Test results reported in patent publication US7880007B2, “Bicyclic substituted phenyl piperidine modulators of muscarinic receptors” (Vertex Pharmaceuticals Incorporated, priority 2004, dated 2011).

What was measured:
Assay type in all cases: cell-based
M1 muscarinic receptor = target: T1, M1 muscarinic receptor (Homo sapiens, UniProt P11229); assay: Functional mobilization of intracellular calcium (FLIPR), M1-CHO cells; conditions: for M1 Activity: M1-CHO cells, calcium mobilization (FLIPR)
T1 construct: expressed in transfected cells; host or cells: CHO (M1-CHO)
T1 sequence (P11229 1-460): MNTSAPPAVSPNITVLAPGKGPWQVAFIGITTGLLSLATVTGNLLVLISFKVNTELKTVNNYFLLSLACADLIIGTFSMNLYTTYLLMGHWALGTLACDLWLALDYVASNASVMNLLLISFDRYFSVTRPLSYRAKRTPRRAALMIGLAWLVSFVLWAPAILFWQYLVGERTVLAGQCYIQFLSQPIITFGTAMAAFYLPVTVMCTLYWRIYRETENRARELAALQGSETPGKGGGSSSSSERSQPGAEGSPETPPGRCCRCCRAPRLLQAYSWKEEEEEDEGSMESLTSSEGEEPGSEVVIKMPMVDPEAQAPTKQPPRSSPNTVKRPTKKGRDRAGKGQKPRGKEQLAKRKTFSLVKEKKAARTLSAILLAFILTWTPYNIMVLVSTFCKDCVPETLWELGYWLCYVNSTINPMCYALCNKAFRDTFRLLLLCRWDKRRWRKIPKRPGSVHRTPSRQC
In short: (§1)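 Calcium mobilisation read by FLIPR over 60 s (ex 488/em 540 nm) in recombinant muscarinic CHO lines loaded with calcium dye plus 1 mM probenecid. Compounds tested as agonists alone, or as inhibitors against EC80 carbachol after 15 min pre-incubation or co-addition; 0.5% DMSO; efficacy scaled to carbachol maximal response.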

M4 muscarinic receptor = target: T2, M4 muscarinic receptor (Homo sapiens, UniProt P08173); assay: Functional mobilization of intracellular calcium (FLIPR), M4-CHO cells; conditions: for M4 Activity: M4-CHO cells, calcium mobilization (FLIPR)
T2 construct: expressed in transfected cells; host or cells: CHO (M4-CHO)
T2 sequence (P08173 1-479): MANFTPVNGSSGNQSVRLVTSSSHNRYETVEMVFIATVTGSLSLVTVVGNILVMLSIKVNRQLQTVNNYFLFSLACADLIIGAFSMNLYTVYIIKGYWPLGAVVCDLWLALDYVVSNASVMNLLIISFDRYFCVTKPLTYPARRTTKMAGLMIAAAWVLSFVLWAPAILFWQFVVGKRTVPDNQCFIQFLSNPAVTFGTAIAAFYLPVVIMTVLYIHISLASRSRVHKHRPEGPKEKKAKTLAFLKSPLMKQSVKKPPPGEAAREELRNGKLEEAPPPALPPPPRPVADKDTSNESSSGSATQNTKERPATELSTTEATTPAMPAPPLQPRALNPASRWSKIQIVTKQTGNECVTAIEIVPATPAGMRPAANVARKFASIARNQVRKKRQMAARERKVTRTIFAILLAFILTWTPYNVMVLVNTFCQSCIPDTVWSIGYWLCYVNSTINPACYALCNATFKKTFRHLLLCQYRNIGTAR
In short: as §1

M3 muscarinic receptor = target: T3, M3 muscarinic receptor (Homo sapiens, UniProt P20309); assay: Functional mobilization of intracellular calcium (FLIPR), M3-CHO cells; conditions: for M3 Activity: M3-CHO cells, calcium mobilization (FLIPR)
T3 construct: expressed in transfected cells; host or cells: CHO (M3-CHO)
In short: as §1

M2 muscarinic receptor = target: T4, M2 muscarinic receptor (Homo sapiens, UniProt P08172); assay: Functional mobilization of intracellular calcium (FLIPR), M2-CHO cells; conditions: for M2 Activity: M2-CHO cells, calcium mobilization (FLIPR)
T4 construct: expressed in transfected cells; host or cells: CHO (M2-CHO)
T4 sequence (P08172 1-466): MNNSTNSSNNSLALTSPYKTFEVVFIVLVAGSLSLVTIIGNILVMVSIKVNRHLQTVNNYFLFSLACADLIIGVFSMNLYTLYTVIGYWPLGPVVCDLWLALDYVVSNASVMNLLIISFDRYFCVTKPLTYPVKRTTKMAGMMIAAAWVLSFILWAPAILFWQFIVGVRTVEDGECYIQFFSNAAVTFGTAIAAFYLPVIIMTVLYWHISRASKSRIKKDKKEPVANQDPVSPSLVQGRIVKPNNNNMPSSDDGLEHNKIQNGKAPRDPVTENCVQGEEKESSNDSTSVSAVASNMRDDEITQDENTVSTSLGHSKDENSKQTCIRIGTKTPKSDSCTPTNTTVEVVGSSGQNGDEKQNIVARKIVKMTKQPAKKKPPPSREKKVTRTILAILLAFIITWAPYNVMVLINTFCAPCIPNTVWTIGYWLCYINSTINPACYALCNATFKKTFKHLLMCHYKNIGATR
In short: as §1

[1] = 100% efficacy = maximum response obtained with the Carbachol control
[2] = 100% efficacy is the maximum response obtained with the Carbachol control

T3 sequence (P20309 whole entry): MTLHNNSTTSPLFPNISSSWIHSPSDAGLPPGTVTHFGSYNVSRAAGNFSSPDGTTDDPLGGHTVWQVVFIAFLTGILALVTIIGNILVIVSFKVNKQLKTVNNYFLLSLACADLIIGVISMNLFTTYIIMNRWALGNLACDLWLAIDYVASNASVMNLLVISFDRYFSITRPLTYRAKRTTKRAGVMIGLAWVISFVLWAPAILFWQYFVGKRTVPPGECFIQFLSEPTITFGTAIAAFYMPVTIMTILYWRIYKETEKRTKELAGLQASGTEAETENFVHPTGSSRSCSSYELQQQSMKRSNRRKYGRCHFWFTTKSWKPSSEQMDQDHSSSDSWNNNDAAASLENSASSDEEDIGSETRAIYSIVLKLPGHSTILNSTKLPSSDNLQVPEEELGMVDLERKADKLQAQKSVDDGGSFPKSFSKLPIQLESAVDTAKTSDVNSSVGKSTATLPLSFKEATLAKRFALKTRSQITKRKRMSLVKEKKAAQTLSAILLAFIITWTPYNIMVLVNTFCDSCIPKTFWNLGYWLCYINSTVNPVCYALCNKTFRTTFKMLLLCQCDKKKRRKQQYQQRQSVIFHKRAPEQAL

Compound | Emax (M1 muscarinic receptor; [1]) | M1 Activity (M1 muscarinic receptor) | Emax (M4 muscarinic receptor; [1]) | M4 Activity (M4 muscarinic receptor) | Emax (M3 muscarinic receptor; [1]) | M3 Activity (M3 muscarinic receptor) | Emax (M2 muscarinic receptor; [1]) | M2 Activity (M2 muscarinic receptor) | Emax (M1 muscarinic receptor; [2]) | Emax (M4 muscarinic receptor; [2]) | Emax (M3 muscarinic receptor; [2]) | Emax (M2 muscarinic receptor; [2])
c1ccc(-c2ccccc2C2CCN([C@H]3C[C@H]4CC[C@H]3C4)CC2)cc1 [Compound 110] | < 25% | + (activity was measured to be greater than 5.0 μM) | 25 to 100% | ++ (activity was measured to be from 1.0 μM to 5.0 μM) | < 25% | + (activity was measured to be greater than 5.0 μM) | < 25% | + (activity was measured to be greater than 5.0 μM) | – | – | – | –
CNC(=O)c1ccc(-c2ccc(OC)c(C3CCN(C4CCCCC4)CC3)c2)cc1 [Compound 36] | < 25% | + (activity was measured to be greater than 5.0 μM) | 25 to 100% | ++ (activity was measured to be from 1.0 μM to 5.0 μM) | < 25% | + (activity was measured to be greater than 5.0 μM) | < 25% | + (activity was measured to be greater than 5.0 μM) | – | – | – | –
COc1cccc(-c2ccc(OC)c(C3CCN([C@@H]4C[C@H]5CC[C@H]4C5)CC3)c2)c1 [Compound 69] | < 25% | + (activity was measured to be greater than 5.0 μM) | 25 to 100% | + (activity was measured to be greater than 5.0 μM) | < 25% | + (activity was measured to be greater than 5.0 μM) | < 25% | + (activity was measured to be greater than 5.0 μM) | – | – | – | –
COc1ccc(-c2ccc3c(c2)OCO3)cc1C1CCN(C2CCCCC2)CC1 [Compound 382] | – | + (activity was measured to be greater than 5.0 μM) | – | + (activity was measured to be greater than 5.0 μM) | – | + (activity was measured to be greater than 5.0 μM) | – | + (activity was measured to be greater than 5.0 μM) | < 25% | 25 to 100% | < 25% | < 25%
CCOC(=O)N1C2CCC1CC(N1CCC(c3cc(-c4ccc(S(=O)(=O)N5CCCC5)cc4)ccc3OC)CC1)C2 (stereo not drawn) [Compound 215] | 25 to 100% | + (activity was measured to be greater than 5.0 μM) | < 25% | + (activity was measured to be greater than 5.0 μM) | < 25% | + (activity was measured to be greater than 5.0 μM) | < 25% | + (activity was measured to be greater than 5.0 μM) | – | – | – | –
COc1ccccc1C1CCN(C2CCC(C3CCCCC3)CC2)CC1 (stereo not drawn) [Compound 175] | < 25% | + (activity was measured to be greater than 5.0 μM) | < 25% | + (activity was measured to be greater than 5.0 μM) | < 25% | + (activity was measured to be greater than 5.0 μM) | < 25% | + (activity was measured to be greater than 5.0 μM) | – | – | – | –
O=C(COc1ccccc1C1CCN([C@H]2C[C@H]3CC[C@H]2C3)CC1)c1ccc(N2CCCC2)cc1 [Compound 127] | 25 to 100% | ++ (activity was measured to be from 1.0 μM to 5.0 μM) | 25 to 100% | +++ (activity was measured to be less than 1.0 μM) | < 25% | + (activity was measured to be greater than 5.0 μM) | 25 to 100% | ++ (activity was measured to be from 1.0 μM to 5.0 μM) | – | – | – | –
CCOC(=O)N1C2CCC1CC(N1CCC(c3cc(F)cc(F)c3OC)CC1)C2 (stereo not drawn) [Compound 198] | 25 to 100% | ++ (activity was measured to be from 1.0 μM to 5.0 μM) | 25 to 100% | +++ (activity was measured to be less than 1.0 μM) | < 25% | + (activity was measured to be greater than 5.0 μM) | < 25% | + (activity was measured to be greater than 5.0 μM) | – | – | – | –
COc1ccc(-c2ccc(S(=O)(=O)C(C)C)cc2)cc1C1CCN([C@H]2C[C@H]3CC[C@H]2C3)CC1 [Compound 214] | 25 to 100% | + (activity was measured to be greater than 5.0 μM) | 25 to 100% | ++ (activity was measured to be from 1.0 μM to 5.0 μM) | < 25% | + (activity was measured to be greater than 5.0 μM) | < 25% | + (activity was measured to be greater than 5.0 μM) | – | – | – | –
OC1(c2ccc(F)cc2F)CCN(C2C[C@H]3CC[C@H]2C3)CC1 (stereo partly drawn) [Compound 41] | < 25% | + (activity was measured to be greater than 5.0 μM) | < 25% | + (activity was measured to be greater than 5.0 μM) | < 25% | + (activity was measured to be greater than 5.0 μM) | < 25% | + (activity was measured to be greater than 5.0 μM) | – | – | – | –
COc1ccccc1C1CCN(C2CC(c3ccccc3)C(c3ccccc3)C2)CC1 (stereo not drawn) [Compound 339] | 25 to 100% | + (activity was measured to be greater than 5.0 μM) | 25 to 100% | + (activity was measured to be greater than 5.0 μM) | < 25% | + (activity was measured to be greater than 5.0 μM) | < 25% | + (activity was measured to be greater than 5.0 μM) | – | – | – | –
COc1ccc(F)cc1C1(F)CCN(C[C@@H]2C[C@H]3C=C[C@H]2C3)CC1 [Compound 5] | 25 to 100% | + (activity was measured to be greater than 5.0 μM) | 25 to 100% | +++ (activity was measured to be less than 1.0 μM) | < 25% | + (activity was measured to be greater than 5.0 μM) | 25 to 100% | + (activity was measured to be greater than 5.0 μM) | – | – | – | –
